Experimental data taken from paper PMC3985299, “Single Ascending Dose Safety and Pharmacokinetics of CDRI-97/78: First-in-Human Study of a Novel Antimalarial Drug” (Malaria Research and Treatment, 2014).
Entries after “also recorded” stand apart in the source; their conditions may differ.

Assays:
healthy human volunteers [1] = assay: Single ascending dose study: clinical parameters (blood pressure, pulse rate, respiratory rate, corrected QT); format: in vivo; set-up: SBP / DBP: unit not given here; conditions: for DBP / SBP: 2 hours after drug administration; for Diastolic blood pressure: 600 and 700 mg group
Excerpt: The volunteers after giving informed consent were screened. The screening process was done latest within 1 month of admission for dosing. The volunteers who fulfilled the inclusion/exclusion criteria were admitted in the CPU the night before drug administration. Standardized dinner was served at 9 pm the night prior to dosing. On day 0, baseline blood sample for biochemical and haematological examination and stool and urine samples for routine and microscopy were taken. They received the study drug, according to the randomization sequence, under supervision. The empty packaging was returned to the container. The volunteers received drug as per randomization. Breakfast was given half an hour after drug administration. Subsequently, standardized lunch and dinner were served to the volunteers.
The subjects were attached to a cardiac monitor and vital HR, BP, ECG, oxygen saturation, and RR were recorded. Corrected QT interval using Fridericia's formula was calculated. Adverse events were assessed at specific time points (0.5, 1, 2, 4, 6, 8, 12, and 24 hrs after medication). Unscheduled monitoring was undertaken whenever it felt necessary. The volunteers were discharged after 24 hrs and they had to return at 48 hrs and on the 7th day for follow-up. At the end of the 7th day, they were said to have completed the study. Routine haematological and biochemical investigations were performed at 0 hr, 24 hrs after drug administration, and on day 7. The study was monitored by a Data Safety Monitoring Board.

healthy human volunteers [2] = assay: Single ascending dose study: haematological parameters; format: in vivo; conditions: 400 mg
Excerpt: The study was approved by the Institute's Ethics Committee. The single ascending dose study and the pharmacokinetic study are registered with Central Trial Registry of India (CTRI/2012/07/002812; CTRI/2012/07/002832). Normal healthy male volunteers in the age group of 18–45 years were invited to join the trial. A detailed informed consent process of the volunteers was undertaken and screening of the volunteers was done after obtaining informed consent. They were recruited through contacts and hospital employees were excluded. The health status of the volunteers was determined by taking medical history, physical examination, routine haematology (haemoglobin, total lymphocyte count, differential count, and platelet count), clinical biochemistry (serum glutamic oxaloacetic transaminase (SGOT), serum glutamic pyruvic transaminase (SGPT), serum bilirubin, serum creatinine, blood urea, serum electrolytes, random blood sugar, total protein, and serum lipid profile), and urine and stool analysis (routine examination and microscopy). The volunteers were asked to report to the study site after 12 hours of fasting for the blood tests. Chest X-ray and 12-lead ECG were also taken. The participants were also screened for human immunodeficiency virus (HIV) and hepatitis B. The volunteers after giving informed consent were screened. The screening process was done latest within 1 month of admission for dosing. The volunteers who fulfilled the inclusion/exclusion criteria were admitted in the CPU the night before drug administration. Standardized dinner was served at 9 pm the night prior to dosing. On day 0, baseline blood sample for biochemical and haematological examination and stool and urine samples for routine and microscopy were taken. […] The subjects were attached to a cardiac monitor and vital HR, BP, ECG, oxygen saturation, and RR were recorded. Corrected QT interval using Fridericia's formula was calculated. Adverse events were assessed at specific time points (0.5, 1, 2, 4, 6, 8, 12, and 24 hrs after medication). […] The study was monitored by a Data Safety Monitoring Board.

[3] = Single oral dose (200 mg) pharmacokinetic study, plasma LC-MS/MS, noncompartmental analysis; format: in vivo, human; conditions: oral 200 mg
Protocol: For pharmacokinetic (PK) study, eligible participants were admitted and housed in the clinical pharmacology unit an evening prior to the PK study. A standard dinner was served and a fasting condition for at least 10 hrs prior to dosing and 4 hrs after dosing was ensured. A peripheral forearm vein was cannulated for sampling for the PK analysis. 200 mg of the study drug was administered with 300 mL of water. The time of actual dose administration to the nearest minute was recorded. 2.5 mL of blood was collected from the indwelling cannula at 0 (before dose), 0.25, 0.5, 0.75, 1, 1.5, 2, 4, 6, 8, 12, 18, 24, 48, 72, 96, 120, and 144 hrs (after dose). 10 mL of additional blood was collected at 0 (before dose) and 24 hr (after dose) for laboratory parameters for safety assessment and PK control sample. A time window of ±2 minutes was permitted for collecting the post dose samples from the scheduled time for PK analysis. Plasma was separated from blood sample intended for PK analysis, within 1 hour of blood sampling, by centrifugation at 2000 rpm for 10 min at 4°C. Samples were stored at −80°C pending transportation. Heparinised blood samples were transported to the laboratory within 7 days of collection. Quantitative analyses of clinical phase ascending dose and single dose PKs samples were done at GLP lab of Pharmacokinetics and Metabolism Division, CDRI, Lucknow, India. α-Arteether was used as an internal standard and all the analyses were performed as per the published method by Singh et al. 2009 [19]. Acceptance criteria for analytical runs were fixed as per internationally approved guidelines. Data acquisition and quantitation were performed using analyst software version 1.4 (Applied Biosystems, MDS SCIEX Toronto, Canada). PK parameters were estimated by using WinNonlin software (Version 1.5, Pharsight Corporation, Mountain View, CA). Oral data were best fitted in noncompartmental model. The individual plasma concentration-time profiles were subjected to noncompartmental analysis to determine various PK parameters. The PK parameters included the terminal elimination half-life (T 1/2), maximum plasma concentration (C max), time to reach maximum plasma concentration (T max), area under the curve (AUC0–∞), and mean residence time (MRT).

C=C(c1ccc(OC(C)(C)COC(=O)CCC(=O)O)cc1)C1COC2(OO1)C1CC3CC(C1)CC2C3 (centres unmarked) [CDRI 97/78, Mono[2methyl2[3(1spiro[tricycle[3.3.1.13,7]decane2,3′-[1,2,4]trioxan] 6′-ylethenyl)phenoxy]propyl] ester] gave a DBP (healthy human volunteers [1]; 80 mg) of 73 ± 5.21, an SBP (healthy human volunteers [1]; 80 mg) of 112.17 ± 6.24 and a DBP (healthy human volunteers [1]; 160 mg) of 77.17 ± 8.06. It also gave an SBP (healthy human volunteers [1]; 160 mg) of 119.5 ± 5.17, a DBP (healthy human volunteers [1]; 320 mg) of 82.33 ± 4.68 and an SBP (healthy human volunteers [1]; 320 mg) of 127.5 ± 6.38. The DBP (healthy human volunteers [1]; 400 mg) was 71.33 ± 8.19, the SBP (healthy human volunteers [1]; 400 mg) was 111.83 ± 7.91 and the DBP (healthy human volunteers [1]; 500 mg) was 71.83 ± 7.81. For the same compound, the SBP (healthy human volunteers [1]; 500 mg) was 114.5 ± 8.34, the DBP (healthy human volunteers [1]; 600 mg) was 66.5 ± 6.53 and the SBP (healthy human volunteers [1]; 600 mg) was 112.83 ± 6.18. For the same compound, the DBP (healthy human volunteers [1]; 700 mg) was 69 ± 8.48, the SBP (healthy human volunteers [1]; 700 mg) was 115.5 ± 2.12 and the “Corrected QT interval (Fridericia), change within treatment groups” value (healthy human volunteers [1]; 80-700 mg groups) was “no statistically or clinically significant difference; also recorded: No clinically meaningful alteration”. It also gave a Diastolic blood pressure (healthy human volunteers [1]; 0 hours) of 76.87 ± 8.74 mmHg, a Diastolic blood pressure (healthy human volunteers [1]; 0.5 hours) of 78.37 ± 8.86 mmHg and a Diastolic blood pressure (healthy human volunteers [1]; 1 hours) of 79.25 ± 13.46 mmHg. For the same compound, the Diastolic blood pressure (healthy human volunteers [1]; 2 hours) was 67.12 ± 6.49 mmHg, the Diastolic blood pressure (healthy human volunteers [1]; 4 hours) was 73.12 ± 12.32 mmHg and the Diastolic blood pressure (healthy human volunteers [1]; 6 hours) was 75.87 ± 8.11 mmHg. The Diastolic blood pressure (healthy human volunteers [1]; 8 hours) was 74 ± 11 mmHg, the Diastolic blood pressure (healthy human volunteers [1]; 12 hours) was 75 ± 10.03 mmHg and the “Pulse rate, respiratory rate and systolic blood pressure, change compared to baseline” value (healthy human volunteers [1]; any time point, all treatment groups) was “None of the treatment groups demonstrated a significant alteration”. It also gave a Hemoglobin (healthy human volunteers [2]; 7th day) of 14.35 ± 1.10 gm%, a Hemoglobin (healthy human volunteers [2]; 24 hr) of 14.92 ± 0.94 gm% and a Hemoglobin (healthy human volunteers [2]; baseline) of 14.25 ± 0.75 gm%. For the same compound, the Absorption [3] was “rapidly absorbed” and the “Plasma concentration of parent molecule” value ([3]; most of the volunteers) was “below the limit of quantitation”.
